Results published in ChEMBL document CHEMBL1201862, “PubChem BioAssay data set” (2004).
Calls of active or inactive are those of the source.

What was measured:
[1] = test system: CHO-K1; experiment: (§1) Counterscreen for antagonists of the orexin 1 receptor (OX1R; HCRTR1): Homogeneous time resolved fluorescence (HTRF)-based cell-based dose response assay to identify antagonists of the parental CHO-K1 cell line. [Related pubchem assays (depositor defined):AID434989, AID435008, AID463079, AID485270, AID492963, AID492964, AID492965, AID493232, AID504699, AID504701]; assay type: functional; settings: Cricetulus griseus
[2] = as §1, with “Fluorescence-based” for “Homogeneous time resolved fluorescence (HTRF)-based”, “cell-based high throughput” for “cell-based”, “CHO” for “CHO-K1”; assay type: functional
[3] = molecular target: T1, Orexin/Hypocretin receptor type 1 (Homo sapiens, UniProt O43613); experiment: Homogeneous Time Resolved Fluorescence (HTRF)-based cell-based high throughput dose response assay for antagonists of the orexin 1 receptor (OX1R; HCRTR1). [Related pubchem assays (depositor defined):AID434989, AID435008, AID463079, AID485270, AID492963, AID492964, AID492965, AID493232, AID504717, AID504718]; assay type: functional
T1 sequence (O43613 whole entry): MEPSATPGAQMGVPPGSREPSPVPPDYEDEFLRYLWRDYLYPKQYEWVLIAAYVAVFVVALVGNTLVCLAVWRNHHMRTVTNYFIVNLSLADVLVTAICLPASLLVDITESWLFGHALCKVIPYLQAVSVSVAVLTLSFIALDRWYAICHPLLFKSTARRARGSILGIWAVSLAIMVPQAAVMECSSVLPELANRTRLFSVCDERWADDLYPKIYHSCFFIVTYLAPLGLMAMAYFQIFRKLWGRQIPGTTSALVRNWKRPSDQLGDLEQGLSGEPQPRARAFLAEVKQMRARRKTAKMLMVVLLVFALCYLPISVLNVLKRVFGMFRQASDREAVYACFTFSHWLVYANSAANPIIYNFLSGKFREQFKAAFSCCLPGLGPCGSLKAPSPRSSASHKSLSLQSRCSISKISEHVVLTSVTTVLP

[4] = molecular target: T1, Orexin/Hypocretin receptor type 1; experiment: Fluorescence-based cell-based high throughput dose response assay for antagonists of the orexin 1 receptor (OX1R; HCRTR1). [Related pubchem assays (depositor defined):AID434989, AID435008, AID463079, AID485270, AID492963, AID492964, AID492965, AID493232, AID504717, AID504718]; assay type: functional
[5] = molecular target: T2, Orexin receptor type 2 (Homo sapiens, UniProt O43614); experiment: Counterscreen assay for antagonists of the orexin 1 receptor (OX1R; HCRTR1): Fluorescence-based cell-based dose response assay for antagonists of the orexin 2 receptor (OX2R; HCRTR2), run by assay provider.; assay type: functional
T2 sequence (O43614 whole entry): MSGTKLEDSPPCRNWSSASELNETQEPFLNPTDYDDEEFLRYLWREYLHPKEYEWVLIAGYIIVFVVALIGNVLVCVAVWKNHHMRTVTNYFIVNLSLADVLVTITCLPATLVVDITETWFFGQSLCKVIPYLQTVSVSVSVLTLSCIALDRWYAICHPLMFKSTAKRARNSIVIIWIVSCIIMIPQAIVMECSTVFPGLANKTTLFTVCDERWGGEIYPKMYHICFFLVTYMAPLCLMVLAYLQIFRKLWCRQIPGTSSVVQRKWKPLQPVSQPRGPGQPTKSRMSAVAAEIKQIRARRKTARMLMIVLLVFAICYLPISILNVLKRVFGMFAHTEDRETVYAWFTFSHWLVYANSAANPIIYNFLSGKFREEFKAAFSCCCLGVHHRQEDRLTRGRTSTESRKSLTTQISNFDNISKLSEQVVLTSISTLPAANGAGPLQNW

[6] = molecular target: T2, Orexin receptor type 2; experiment: Counterscreen assay for antagonists of the orexin 1 receptor (OX1R; HCRTR1): Homogeneous Time Resolved Fluorescence (HTRF)-based cell-based dose response assay for antagonists of the orexin 2 receptor (OX2R; HCRTR2), run by assay provider.; assay type: functional
[7] = inhibitors of intracellular T. cruzi replication, confirmation, NIH3T3 host cells, beta-gal luminescence (AID 2044); assay type: functional, cell-based;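 further: intracellular parasites grown in NIH/3T3 mouse fibroblasts as host cells; luminescent beta-galactosidase reporter signal from transgenic T. cruzi replicating inside host cells; inhibitors lower the luminescence signal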
[8] = microbe, parasite or virus in culture; assay type: functional; settings: Mycobacterium tuberculosis
[9] = cytotoxicity toward NIH3T3 fibroblasts, dose response, counter-screen, cell-based, ATP luminescence, mouse fibroblasts (AID 2010); assay type: functional;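 further: cells exposed to compound for about 90 hours before reading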
[10] = molecular target: T3, Replicative DNA helicase DnaB (Mycobacterium tuberculosis, UniProt P9WMR3); experiment: DnaB intein splicing inhibitors, dose response, biochemical, cell-free fluorescence (AID 449749); assay type: functional
T3 sequence (P9WMR3 whole entry): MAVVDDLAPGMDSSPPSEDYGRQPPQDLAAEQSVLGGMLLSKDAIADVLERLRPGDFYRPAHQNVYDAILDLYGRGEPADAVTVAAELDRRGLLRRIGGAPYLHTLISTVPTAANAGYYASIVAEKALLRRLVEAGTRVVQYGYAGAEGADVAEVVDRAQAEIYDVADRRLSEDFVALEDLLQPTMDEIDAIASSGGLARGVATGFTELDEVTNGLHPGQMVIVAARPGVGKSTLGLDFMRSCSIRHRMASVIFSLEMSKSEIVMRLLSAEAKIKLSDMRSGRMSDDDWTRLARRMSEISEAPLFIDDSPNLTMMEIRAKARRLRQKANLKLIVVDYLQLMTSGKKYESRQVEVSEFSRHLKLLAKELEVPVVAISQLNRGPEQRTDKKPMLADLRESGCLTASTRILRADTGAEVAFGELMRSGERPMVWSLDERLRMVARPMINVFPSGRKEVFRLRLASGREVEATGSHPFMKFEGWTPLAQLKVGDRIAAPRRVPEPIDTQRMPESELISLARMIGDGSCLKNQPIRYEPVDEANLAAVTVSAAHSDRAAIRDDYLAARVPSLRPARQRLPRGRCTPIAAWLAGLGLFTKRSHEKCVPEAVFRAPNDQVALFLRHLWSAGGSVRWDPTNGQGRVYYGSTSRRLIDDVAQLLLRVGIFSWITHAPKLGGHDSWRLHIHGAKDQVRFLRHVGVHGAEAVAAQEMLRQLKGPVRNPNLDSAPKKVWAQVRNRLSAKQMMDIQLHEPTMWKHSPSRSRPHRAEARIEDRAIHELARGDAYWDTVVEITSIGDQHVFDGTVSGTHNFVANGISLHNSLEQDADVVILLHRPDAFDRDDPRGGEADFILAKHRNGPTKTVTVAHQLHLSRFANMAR

[11] = test system: Vero; experiment: Vero cell cytotoxicity, cytotoxicity control for flavivirus capping enzyme inhibitors (AID 588742); assay type: functional; settings: Chlorocebus sabaeus
[12] = molecular target: T4, Protein RecA (Mycobacterium tuberculosis, UniProt P9WHJ3); experiment: Fluorescence Cell-Free Homogeneous Dose Retest to Identify Inhibitors of RecA-Intein Splicing Activity. [Related pubchem assays (depositor defined):AID2097, AID2223, AID489010, AID492950]; assay type: functional
T4 sequence (P9WHJ3 whole entry): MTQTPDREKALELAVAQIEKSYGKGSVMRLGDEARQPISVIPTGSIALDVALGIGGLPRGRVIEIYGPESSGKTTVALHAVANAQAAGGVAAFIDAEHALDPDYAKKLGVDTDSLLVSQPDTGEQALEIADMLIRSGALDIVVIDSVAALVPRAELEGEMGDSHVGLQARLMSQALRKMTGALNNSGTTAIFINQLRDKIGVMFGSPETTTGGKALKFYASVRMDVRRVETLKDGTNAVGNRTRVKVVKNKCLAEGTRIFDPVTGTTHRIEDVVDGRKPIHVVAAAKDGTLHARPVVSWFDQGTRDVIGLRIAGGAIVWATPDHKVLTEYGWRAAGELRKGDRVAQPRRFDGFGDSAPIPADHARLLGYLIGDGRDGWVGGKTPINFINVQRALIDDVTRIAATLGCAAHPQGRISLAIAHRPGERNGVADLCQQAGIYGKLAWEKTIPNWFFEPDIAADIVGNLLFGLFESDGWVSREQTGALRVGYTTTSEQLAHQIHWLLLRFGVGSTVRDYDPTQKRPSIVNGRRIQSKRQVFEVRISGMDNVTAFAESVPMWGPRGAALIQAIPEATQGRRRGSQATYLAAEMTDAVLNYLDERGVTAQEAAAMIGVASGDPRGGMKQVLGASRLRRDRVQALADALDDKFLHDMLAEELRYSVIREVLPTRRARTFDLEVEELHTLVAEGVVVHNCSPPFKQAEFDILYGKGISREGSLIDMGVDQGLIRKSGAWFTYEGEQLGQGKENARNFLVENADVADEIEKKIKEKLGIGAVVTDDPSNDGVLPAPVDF

[13] = molecular target: Genome polyprotein (dengue virus type 2, UniProt P29990); experiment: Dengue-2 NS5 methyltransferase inhibitors, primary screen, biochemical, confirmation dose response (AID 588689); assay type: functional
[14] = molecular target: Estrogen receptor beta (Homo sapiens, UniProt Q92731);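 further: recombinant ER-beta bound to coactivator SRC1 peptide in presence of estradiol agonist; inhibitors block coactivator peptide binding and lower the FRET signal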
[15] = molecular target: T5, Insulin-degrading enzyme (Homo sapiens, UniProt P14735); experiment: activators of recombinant IDE enzyme, dose response, counter-screen for IDE activator project, biochemical, fluorescence polarization (AID 588681)
T5 sequence (P14735 whole entry): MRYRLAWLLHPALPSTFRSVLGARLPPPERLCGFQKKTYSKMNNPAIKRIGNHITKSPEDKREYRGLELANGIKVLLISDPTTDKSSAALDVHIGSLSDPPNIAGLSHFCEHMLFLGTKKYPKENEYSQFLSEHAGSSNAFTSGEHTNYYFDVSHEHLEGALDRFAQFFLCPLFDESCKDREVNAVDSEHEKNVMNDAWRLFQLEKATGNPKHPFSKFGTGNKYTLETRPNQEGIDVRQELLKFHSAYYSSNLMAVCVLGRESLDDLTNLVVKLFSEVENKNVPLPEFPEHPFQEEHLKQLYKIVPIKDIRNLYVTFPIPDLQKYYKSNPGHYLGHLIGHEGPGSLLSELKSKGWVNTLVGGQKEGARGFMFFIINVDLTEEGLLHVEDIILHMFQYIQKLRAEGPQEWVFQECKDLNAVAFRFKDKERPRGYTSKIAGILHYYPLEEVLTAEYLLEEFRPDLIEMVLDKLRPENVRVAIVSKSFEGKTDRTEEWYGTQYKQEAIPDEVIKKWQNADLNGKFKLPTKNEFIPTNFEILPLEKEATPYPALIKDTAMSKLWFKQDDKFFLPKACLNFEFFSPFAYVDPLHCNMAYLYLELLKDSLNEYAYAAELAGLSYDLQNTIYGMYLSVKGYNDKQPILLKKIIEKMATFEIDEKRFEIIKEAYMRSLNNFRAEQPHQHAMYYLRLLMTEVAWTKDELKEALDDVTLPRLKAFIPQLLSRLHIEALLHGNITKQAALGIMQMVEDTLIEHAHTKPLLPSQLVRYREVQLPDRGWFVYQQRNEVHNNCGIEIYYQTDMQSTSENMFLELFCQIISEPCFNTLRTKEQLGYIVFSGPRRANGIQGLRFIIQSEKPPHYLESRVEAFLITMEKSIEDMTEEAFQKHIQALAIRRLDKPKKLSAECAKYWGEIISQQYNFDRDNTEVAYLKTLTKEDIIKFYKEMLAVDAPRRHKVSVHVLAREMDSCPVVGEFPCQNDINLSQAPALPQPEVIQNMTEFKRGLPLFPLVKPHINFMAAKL

[16] = molecular target: T5, Insulin-degrading enzyme; experiment: activators of endogenous IDE in HEK cells, dose response, cell-based, fluorescence polarization (AID 588439); assay type: functional
[17] = test system: HEK293; experiment: HEK cell cytotoxicity by LDH release, dose response, cytotoxicity control for IDE activator project, fluorescence, HEK cells (AID 588440); assay type: functional, cell-based; settings: Homo sapiens;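 further: cytotoxicity by LDH release measuring loss of membrane integrity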
[18] = test system: HEK293; experiment: optical interference in Abeta FP readout, dose response, artefact control for IDE activator project, biochemical, fluorescence polarization (AID 588442); assay type: functional, cell-based; settings: Homo sapiens
[19] = molecular target: Melanocortin receptor 4 (Homo sapiens, UniProt P32245); experiment: MC4R antagonist potency on cAMP, dose response, cell-based, TR-FRET, biased antagonists (AID 602298); assay type: functional;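 further: antagonist potency against agonist-stimulated cAMP production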
[20] = nonselective inhibitors of cellular cAMP signaling, dose response, counter-screen for MC4R biased antagonist project, cell-based, TR-FRET cAMP detection (AID 602305); assay type: functional;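 further: U2OS cells stimulated with forskolin near its EC80 as the cAMP inducer; potency is for inhibition of forskolin-stimulated cAMP signaling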

Melanocortin receptor 4, sequence (P32245 whole entry): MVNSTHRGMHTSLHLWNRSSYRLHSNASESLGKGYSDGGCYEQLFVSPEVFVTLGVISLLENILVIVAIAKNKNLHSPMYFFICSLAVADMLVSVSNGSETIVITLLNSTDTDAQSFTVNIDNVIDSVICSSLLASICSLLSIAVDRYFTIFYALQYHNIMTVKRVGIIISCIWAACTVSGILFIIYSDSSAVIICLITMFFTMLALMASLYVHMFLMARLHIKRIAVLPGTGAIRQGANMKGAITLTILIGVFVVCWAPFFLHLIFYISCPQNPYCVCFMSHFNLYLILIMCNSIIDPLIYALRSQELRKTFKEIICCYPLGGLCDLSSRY
Genome polyprotein, sequence (P29990 2492-3391 limits assumed): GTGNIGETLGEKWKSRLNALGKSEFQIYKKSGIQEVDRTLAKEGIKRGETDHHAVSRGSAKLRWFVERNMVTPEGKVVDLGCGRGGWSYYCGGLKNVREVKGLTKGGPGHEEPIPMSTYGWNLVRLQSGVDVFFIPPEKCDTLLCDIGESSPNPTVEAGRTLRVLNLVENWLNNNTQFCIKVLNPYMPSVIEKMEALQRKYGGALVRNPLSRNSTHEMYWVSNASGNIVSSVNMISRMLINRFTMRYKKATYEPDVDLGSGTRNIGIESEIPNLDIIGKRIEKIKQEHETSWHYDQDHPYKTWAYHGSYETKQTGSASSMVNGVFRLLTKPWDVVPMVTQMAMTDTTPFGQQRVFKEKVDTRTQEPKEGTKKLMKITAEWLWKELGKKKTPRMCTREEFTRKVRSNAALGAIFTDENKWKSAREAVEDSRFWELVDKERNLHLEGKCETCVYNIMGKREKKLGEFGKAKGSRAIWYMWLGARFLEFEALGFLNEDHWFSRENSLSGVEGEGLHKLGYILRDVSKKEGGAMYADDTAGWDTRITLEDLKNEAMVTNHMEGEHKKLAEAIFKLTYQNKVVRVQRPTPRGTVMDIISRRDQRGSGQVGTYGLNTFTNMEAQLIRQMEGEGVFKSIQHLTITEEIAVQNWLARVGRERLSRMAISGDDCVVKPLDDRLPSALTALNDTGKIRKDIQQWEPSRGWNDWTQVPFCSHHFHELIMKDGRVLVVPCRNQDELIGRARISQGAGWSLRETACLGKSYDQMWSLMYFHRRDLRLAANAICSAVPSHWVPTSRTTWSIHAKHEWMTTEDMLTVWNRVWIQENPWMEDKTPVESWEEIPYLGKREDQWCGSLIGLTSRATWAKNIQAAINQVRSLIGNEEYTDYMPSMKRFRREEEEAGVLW
Estrogen receptor beta, sequence (Q92731 whole entry): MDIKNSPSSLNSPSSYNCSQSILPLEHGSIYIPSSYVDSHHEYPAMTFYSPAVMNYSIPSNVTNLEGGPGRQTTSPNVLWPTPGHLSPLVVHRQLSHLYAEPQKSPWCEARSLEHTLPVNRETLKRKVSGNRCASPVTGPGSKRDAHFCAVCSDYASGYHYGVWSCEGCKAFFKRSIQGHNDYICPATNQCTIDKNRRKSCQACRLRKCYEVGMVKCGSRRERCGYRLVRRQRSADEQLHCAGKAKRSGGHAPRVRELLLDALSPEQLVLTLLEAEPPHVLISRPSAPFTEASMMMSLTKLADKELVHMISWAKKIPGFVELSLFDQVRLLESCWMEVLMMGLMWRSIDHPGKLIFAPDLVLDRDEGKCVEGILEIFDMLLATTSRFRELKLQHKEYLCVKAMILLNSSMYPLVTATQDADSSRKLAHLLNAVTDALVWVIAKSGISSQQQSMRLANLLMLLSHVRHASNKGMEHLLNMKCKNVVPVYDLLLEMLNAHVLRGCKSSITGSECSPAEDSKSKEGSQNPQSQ

Compound: Cc1cc(NC(=O)CCC(=O)N(Cc2cccs2)C(C(=O)NC2CCCC2)c2ccccc2)no1 (centres undefined)
- IC50 [1]: > 66.2 µM (inactive)
- IC50 [2]: > 49.8 µM (inactive)
- IC50 [3]: 0.315 µM (active)
- IC50 [4]: 12.7 µM (inactive)
- IC50 [5]: 42.4 µM (inactive)
- IC50 [6]: > 50 µM (inactive)

Compound: O=[N+]([O-])c1cc([N+](=O)[O-])c2c(Nc3ccccc3)n(-c3ccccc3)[n+]([O-])c2c1
- EC50 [7]: 0.313 µM (active)
- CC50 [8]: 29.7 µM (active)
- EC50 [9]: > 60 µM (not active)
- AC50 [10]: 5.84 µM (active)
- CC50 [11]: 38.9 µM (active)
- EC50 [12]: 1.97 µM (active)
- IC50 [13]: 30.9 µM (active)

Compound: C=CCNc1nc(N(c2ccccc2)c2ccccc2)nc(-n2ccnc2)n1
- IC50 [1]: > 66.2 µM (inactive)
- IC50 [2]: > 49.8 µM (inactive)
- IC50 [3]: 6.47 µM (active)
- IC50 [4]: > 49.8 µM (inactive)
- IC50 [5]: > 88.8 µM (inactive)
- IC50 [6]: > 50 µM (inactive)

Compound: CC(=O)Nc1cc2c(cc1C(=O)c1ccccc1)OCCO2
- IC50 [14]: > 50 µM (not active)
- EC50 [15]: > 54.7 µM (inactive)
- EC50 [16]: > 54.7 µM (inactive)
- IC50 [17]: > 89.2 µM (inactive)
- EC50 [18]: > 54.7 µM (inactive)

Compound: Cc1ccc(S(=O)(=O)N(C)CC(=O)OCC(=O)NC(=O)NC(C)C)cc1
- IC50 [19]: > 64.6 µM (inactive)
- IC50 [20]: > 64.6 µM (inactive)

Compound: COc1ccc(CNc2nc3ccccc3n2CCN2CCOCC2)cc1
- EC50 [15]: > 54.7 µM (inactive)
- EC50 [16]: > 54.7 µM (inactive)
- IC50 [17]: > 89.1 µM (inactive)
- EC50 [18]: > 55.9 µM (inactive)

Compound: O=C(c1cc([N+](=O)[O-])ccc1N1CCOCC1)N1CCN(c2ccc([N+](=O)[O-])cc2)CC1
- EC50 [15]: 3.64 µM (active)
- EC50 [16]: 3.16 µM (active)
- IC50 [17]: > 89.2 µM (inactive)
- EC50 [18]: 1.09 µM (active)
